Measurements published in patent publication USRE39616E1, “Aminoindan derivatives” (priority 1996, dated 2007).

biological target: T1, Human erythrocyte acetylcholinesterase (Homo sapiens, UniProt P22303); assay: biochemical; assay type: biochemical; conditions: AChE Inhibition In vitro IC50
T1 construct: Human erythrocyte acetylcholinesterase (type XIII, Sigma Israel); purchased Sigma Israel type XIII; host or cells: human erythrocytes
Method: Human erythrocyte acetylcholinesterase (type XIII, Sigma Israel), was prepared in a stock solution of 1 U/ml, containing Triton (1%) and bovine serum albumin (0.05%) in phosphate buffer (pH 8). The enzyme (0.05U) was incubated with 3-5 different concentrations of test compound (in triplicate) for periods of from 15 to 60 minutes at 37° C. […] The percentage inhibition of AChE by each concentration of drug is calculated by comparison with that of enzyme in the absence of drug.

T1 sequence (P22303 32-617 isoform P22303-2 limits assumed): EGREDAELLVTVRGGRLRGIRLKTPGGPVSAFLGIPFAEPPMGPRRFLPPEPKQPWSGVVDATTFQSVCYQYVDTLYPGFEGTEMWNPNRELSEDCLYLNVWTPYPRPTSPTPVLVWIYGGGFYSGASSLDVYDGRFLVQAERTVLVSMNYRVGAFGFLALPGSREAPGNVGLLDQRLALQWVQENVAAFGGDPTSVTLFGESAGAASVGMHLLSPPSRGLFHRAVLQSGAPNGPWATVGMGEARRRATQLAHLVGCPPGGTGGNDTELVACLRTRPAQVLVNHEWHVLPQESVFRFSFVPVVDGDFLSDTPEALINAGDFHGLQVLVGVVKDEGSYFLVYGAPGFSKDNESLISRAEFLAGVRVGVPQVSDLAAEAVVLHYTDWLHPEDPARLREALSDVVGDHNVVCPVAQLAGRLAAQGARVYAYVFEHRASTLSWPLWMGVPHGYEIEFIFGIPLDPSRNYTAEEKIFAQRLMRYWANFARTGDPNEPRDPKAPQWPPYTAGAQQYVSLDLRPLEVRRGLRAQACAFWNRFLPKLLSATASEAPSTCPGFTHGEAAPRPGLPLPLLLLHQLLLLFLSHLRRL

| SMILES | IC50 [µM] |
| --- | --- |
| C#CCN(CC)C1CCc2ccc(OC(=O)N(C)C)cc21 (centres unmarked) [Compound 31] | 10 |
| C#CCNC1CCc2cccc(OC(=O)N(C)CC)c21 (centres unmarked) [Compound 33] | 540 |
| C#CCNC1CCc2c(OC(=O)N(C)C)cccc21 (centres unmarked) [Compound 34] | 0.046 |
| C#CCNC1CCc2c(OC(=O)N(C)CC)cccc21 (centres unmarked) [Compound 35] | 2.2 |
| C#CCNC1CCc2ccc(OC(=O)N(C)C3CCCCC3)cc21 (centres unmarked) [Compound 38] | 33 |
| C#CCNC1CCc2ccc(OC(=O)N(C)c3ccc(OC)cc3)cc21 (centres unmarked) [Compound 61] | 0.75 |

biological target: T2, MAO-A (Mus musculus, UniProt Q64133); assay: Inhibition of MAO activity ex vivo (brain); assay type: in vivo, mice; conditions: mice, brain tissue
T2 construct: from tissue; host or cells: mouse brain
T2 sequence (Q64133 1-526): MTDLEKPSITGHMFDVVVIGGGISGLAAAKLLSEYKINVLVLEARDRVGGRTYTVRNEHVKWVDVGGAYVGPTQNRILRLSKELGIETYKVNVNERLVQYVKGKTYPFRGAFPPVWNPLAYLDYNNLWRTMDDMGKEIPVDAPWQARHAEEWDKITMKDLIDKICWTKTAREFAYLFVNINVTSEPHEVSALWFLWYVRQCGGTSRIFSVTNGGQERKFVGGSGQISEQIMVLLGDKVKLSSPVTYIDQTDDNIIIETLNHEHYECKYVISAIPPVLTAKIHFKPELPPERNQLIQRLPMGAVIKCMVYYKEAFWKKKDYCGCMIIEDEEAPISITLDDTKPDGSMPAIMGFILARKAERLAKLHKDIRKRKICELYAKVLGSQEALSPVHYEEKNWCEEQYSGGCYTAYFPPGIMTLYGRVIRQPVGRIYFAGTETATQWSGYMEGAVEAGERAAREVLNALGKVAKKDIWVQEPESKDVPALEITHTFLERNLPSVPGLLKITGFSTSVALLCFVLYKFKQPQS
Method: (§1) Substrate concentrations used were 50 μM (PEA) and 1 mM (5-HT).
(§2) Male Sabra mice, weighing 45-50 g were injected with test compound solutions (prepared in 0.9% saline). Each dose was administered to two or three mice. The mice were sacrificed two hours after drug administration or at a time corresponding to the peak AChE inhibition time (see Table 11). The brain and liver were rapidly dissected and stored in appropriate vials on ice. The tissues were weighed, diluted to ½ in sucrose 0.3M and stored at −20° C. before performance of the MAO assay described above. The results given in Table 11 relate to measurements made on brain tissue only.

| SMILES | MAO-A Inhibition Ex vivo ED50 |
| --- | --- |
| C#CCN(CC)C1CCc2ccc(OC(=O)N(C)C)cc21 (centres unmarked) [Compound 31] | >100 µmol/kg |
| C#CCNC1CCc2cccc(OC(=O)N(C)CC)c21 (centres unmarked) [Compound 33] | >>1200 μmoles/kg |
| C#CCNC1CCc2ccc(OC(=O)N(C)C3CCCCC3)cc21 (centres unmarked) [Compound 38] | >400 µmol/kg |
| C#CCNC1CCc2ccc(OC(=O)N(C)c3ccc(OC)cc3)cc21 (centres unmarked) [Compound 61] | >100 µmol/kg |

biological target: T3, MAO-B (Mus musculus, UniProt Q8BW75); assay: Inhibition of MAO activity ex vivo (brain); assay type: in vivo, mice; conditions: mice, brain tissue
T3 construct: from tissue; host or cells: mouse brain
T3 sequence (Q8BW75 1-520): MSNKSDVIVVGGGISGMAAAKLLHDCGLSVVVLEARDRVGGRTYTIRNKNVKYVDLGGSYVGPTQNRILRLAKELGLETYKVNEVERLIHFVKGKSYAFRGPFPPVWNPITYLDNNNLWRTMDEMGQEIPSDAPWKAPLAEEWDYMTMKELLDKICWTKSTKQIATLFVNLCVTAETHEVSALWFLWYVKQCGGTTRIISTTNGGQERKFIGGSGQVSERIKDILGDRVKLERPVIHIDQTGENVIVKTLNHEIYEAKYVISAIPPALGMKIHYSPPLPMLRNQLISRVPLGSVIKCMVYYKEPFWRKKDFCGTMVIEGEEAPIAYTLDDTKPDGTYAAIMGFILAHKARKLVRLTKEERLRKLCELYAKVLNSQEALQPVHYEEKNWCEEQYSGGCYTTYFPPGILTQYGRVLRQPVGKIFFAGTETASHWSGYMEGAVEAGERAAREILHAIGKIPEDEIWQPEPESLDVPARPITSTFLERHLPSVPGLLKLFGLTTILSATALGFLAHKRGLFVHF
Method: as §1, §2

| SMILES | MAO-B Inhibition Ex vivo ED50 [µmol/kg] |
| --- | --- |
| C#CCN(CC)C1CCc2ccc(OC(=O)N(C)C)cc21 (centres unmarked) [Compound 31] | >100 |
| C#CCNC1CCc2cccc(OC(=O)N(C)CC)c21 (centres unmarked) [Compound 33] | 1000 |
| C#CCNC1CCc2ccc(OC(=O)N(C)C3CCCCC3)cc21 (centres unmarked) [Compound 38] | >400 |
| C#CCNC1CCc2ccc(OC(=O)N(C)c3ccc(OC)cc3)cc21 (centres unmarked) [Compound 61] | >100 |

biological target: T4, whole brain AChE (Mus musculus, UniProt P21836); assay: not given; conditions: mice, whole brain; at peak of activity
T4 sequence (P21836 32-614): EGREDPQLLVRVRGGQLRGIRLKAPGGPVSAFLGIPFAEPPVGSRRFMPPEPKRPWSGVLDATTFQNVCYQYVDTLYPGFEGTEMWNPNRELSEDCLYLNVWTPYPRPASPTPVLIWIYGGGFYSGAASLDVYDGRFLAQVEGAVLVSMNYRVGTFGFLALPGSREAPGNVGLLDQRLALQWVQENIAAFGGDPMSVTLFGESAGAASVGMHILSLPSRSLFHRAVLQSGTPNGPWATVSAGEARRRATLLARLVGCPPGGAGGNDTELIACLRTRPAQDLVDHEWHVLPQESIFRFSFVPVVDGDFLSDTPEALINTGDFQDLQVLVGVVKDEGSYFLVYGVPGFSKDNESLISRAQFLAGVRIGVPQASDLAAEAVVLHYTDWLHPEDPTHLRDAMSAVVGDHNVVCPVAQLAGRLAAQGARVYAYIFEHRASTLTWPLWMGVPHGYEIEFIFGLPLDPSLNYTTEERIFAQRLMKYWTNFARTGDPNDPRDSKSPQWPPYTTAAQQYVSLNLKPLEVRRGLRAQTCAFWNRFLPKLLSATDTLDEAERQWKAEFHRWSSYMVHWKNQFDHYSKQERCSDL

| SMILES | AChE Inhibition Ex vivo ED50 (AC) [µmol/kg] |
| --- | --- |
| C#CCN(CC)C1CCc2ccc(OC(=O)N(C)C)cc21 (centres unmarked) [Compound 31] | 110 |
| C#CCNC1CCc2c(OC(=O)N(C)C)cccc21 (centres unmarked) [Compound 34] | 0.65 |
| C#CCNC1CCc2c(OC(=O)N(C)CC)cccc21 (centres unmarked) [Compound 35] | 10 |
| C#CCNC1CCc2ccc(OC(=O)N(C)C3CCCCC3)cc21 (centres unmarked) [Compound 38] | >1000 |
| C#CCNC1CCc2ccc(OC(=O)N(C)c3ccc(OC)cc3)cc21 (centres unmarked) [Compound 61] | 47 |

same assay, conditions: mouse, in vivo

| SMILES | AChE Inhibition Time to peak activity t [min] |
| --- | --- |
| C#CCNC1CCc2c(OC(=O)N(C)C)cccc21 (centres unmarked) [Compound 34] | 30 |
| C#CCNC1CCc2c(OC(=O)N(C)CC)cccc21 (centres unmarked) [Compound 35] | 60 |

tested on: mice; assay: not given; conditions: mouse, in vivo

| SMILES | Acute Toxicity LD50 (LD) [µmol/kg] | Therapeutic Ratio LD/AC |
| --- | --- | --- |
| C#CCNC1CCc2c(OC(=O)N(C)C)cccc21 (centres unmarked) [Compound 34] | 3.7 | 5.7 |
| C#CCNC1CCc2c(OC(=O)N(C)CC)cccc21 (centres unmarked) [Compound 35] | 33 | 3.3 |

biological target: T5, MAO-A (Rattus norvegicus, UniProt P21396); assay: Inhibition of MAO activity in vitro, 5-HT as substrate; assay type: biochemical; set-up: The MAO enzyme source was a homogenate of rat brain in 0.3M sucrose; from tissue; host or cells: rat brain homogenate, 600 g supernatant; conditions: MAO-A Inhibition In vitro IC50, rat brain homogenate, 5-HT substrate
T5 sequence (P21396 1-526): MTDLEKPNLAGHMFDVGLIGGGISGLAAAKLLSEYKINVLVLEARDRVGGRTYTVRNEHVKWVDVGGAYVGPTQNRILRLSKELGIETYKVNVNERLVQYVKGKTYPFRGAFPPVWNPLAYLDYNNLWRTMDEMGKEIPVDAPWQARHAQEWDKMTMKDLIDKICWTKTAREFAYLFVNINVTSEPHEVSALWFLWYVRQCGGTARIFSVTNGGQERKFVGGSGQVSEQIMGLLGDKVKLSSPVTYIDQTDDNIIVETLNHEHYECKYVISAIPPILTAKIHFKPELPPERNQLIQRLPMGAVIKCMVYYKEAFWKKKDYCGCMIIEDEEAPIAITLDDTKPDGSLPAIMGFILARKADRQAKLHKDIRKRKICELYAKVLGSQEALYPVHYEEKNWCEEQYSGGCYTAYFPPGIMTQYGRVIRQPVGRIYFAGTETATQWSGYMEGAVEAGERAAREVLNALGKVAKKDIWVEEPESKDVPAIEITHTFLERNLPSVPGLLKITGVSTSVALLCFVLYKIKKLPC
Method: as §1

| SMILES | IC50 [µM] |
| --- | --- |
| C#CCN(CC)C1CCc2ccc(OC(=O)N(C)C)cc21 (centres unmarked) [Compound 31] | > 1000 |
| C#CCNC1CCc2c(OC(=O)N(C)C)cccc21 (centres unmarked) [Compound 34] | 0.5 |
| C#CCNC1CCc2c(OC(=O)N(C)CC)cccc21 (centres unmarked) [Compound 35] | < 1 |

same assay, conditions: rat brain homogenate, 5-HT substrate; read-out: MAO-A Inhibition In vitro IC50

| SMILES | IC50 [µM] |
| --- | --- |
| C#CCNC1CCc2ccc(OC(=O)N(C)C3CCCCC3)cc21 (centres unmarked) [Compound 38] | 170 |
| C#CCNC1CCc2ccc(OC(=O)N(C)c3ccc(OC)cc3)cc21 (centres unmarked) [Compound 61] | 700 |

biological target: T6, MAO-B (Rattus norvegicus, UniProt P19643); assay: Inhibition of MAO activity in vitro, PEA as substrate; assay type: biochemical; set-up: The MAO enzyme source was a homogenate of rat brain in 0.3M sucrose; from tissue; host or cells: rat brain homogenate, 600 g supernatant; conditions: MAO-B Inhibition In vitro IC50, rat brain homogenate
T6 sequence (P19643 1-520): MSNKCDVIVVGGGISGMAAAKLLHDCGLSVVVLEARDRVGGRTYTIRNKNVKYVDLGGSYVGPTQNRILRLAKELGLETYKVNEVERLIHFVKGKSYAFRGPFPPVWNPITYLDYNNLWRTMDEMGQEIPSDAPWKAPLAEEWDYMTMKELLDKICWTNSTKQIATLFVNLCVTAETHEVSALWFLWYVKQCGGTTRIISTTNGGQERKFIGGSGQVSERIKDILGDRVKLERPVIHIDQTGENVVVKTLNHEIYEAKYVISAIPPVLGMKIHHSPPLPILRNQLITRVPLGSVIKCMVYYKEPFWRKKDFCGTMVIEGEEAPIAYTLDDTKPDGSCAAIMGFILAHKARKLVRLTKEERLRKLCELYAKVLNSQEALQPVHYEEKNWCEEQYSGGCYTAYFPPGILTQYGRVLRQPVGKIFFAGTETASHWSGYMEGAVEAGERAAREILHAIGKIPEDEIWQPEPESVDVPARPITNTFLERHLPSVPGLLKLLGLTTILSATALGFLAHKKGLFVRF
Method: as §1

| SMILES | IC50 [µM] |
| --- | --- |
| C#CCN(CC)C1CCc2ccc(OC(=O)N(C)C)cc21 (centres unmarked) [Compound 31] | > 1000 |
| C#CCNC1CCc2c(OC(=O)N(C)C)cccc21 (centres unmarked) [Compound 34] | 100 |
| C#CCNC1CCc2c(OC(=O)N(C)CC)cccc21 (centres unmarked) [Compound 35] | 100 |

same assay, conditions: rat brain homogenate, read-out: MAO-B Inhibition In vitro IC50

| SMILES | IC50 [µM] |
| --- | --- |
| C#CCNC1CCc2ccc(OC(=O)N(C)C3CCCCC3)cc21 (centres unmarked) [Compound 38] | 10 |
| C#CCNC1CCc2ccc(OC(=O)N(C)c3ccc(OC)cc3)cc21 (centres unmarked) [Compound 61] | 500 |
